# Patent US20160193216A1 (Nimbus Iris, Inc., priority 2012, published 2016)
# Biological target: T1, IRAK4 (Homo sapiens, UniProt Q9NWZ3)
# T1 sequence (Q9NWZ3 1-460): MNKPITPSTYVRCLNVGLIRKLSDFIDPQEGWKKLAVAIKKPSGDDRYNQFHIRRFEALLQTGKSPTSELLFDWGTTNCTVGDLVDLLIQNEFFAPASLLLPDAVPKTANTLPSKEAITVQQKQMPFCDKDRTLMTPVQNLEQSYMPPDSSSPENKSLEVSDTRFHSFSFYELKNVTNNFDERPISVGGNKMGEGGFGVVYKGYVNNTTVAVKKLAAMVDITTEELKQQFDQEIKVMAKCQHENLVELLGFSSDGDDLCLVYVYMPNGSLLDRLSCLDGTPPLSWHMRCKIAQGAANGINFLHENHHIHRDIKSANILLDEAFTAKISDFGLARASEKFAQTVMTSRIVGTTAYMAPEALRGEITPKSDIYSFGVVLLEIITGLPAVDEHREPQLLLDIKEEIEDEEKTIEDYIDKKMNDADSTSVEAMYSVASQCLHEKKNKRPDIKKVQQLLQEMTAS
# Experiment: IRAK-4 activity inhibition assay (Caliper)
# Assay type: biochemical
# Settings: 37 μM ATP, 3.5 nM IRAK4
# Procedure: A 1× kinase base buffer was prepared from 50 mM HEPES, pH 7.5 and 0.0015% Brij-35. A stop buffer was prepared from 100 mM HEPES, pH 7.5, 0.015% Brij-35, 0.2% Coating Reagent #3, and 50 mM EDTA.
# Test compound was diluted to 50× of the final desired highest inhibitor concentration in reaction by 100% DMSO. 100 μl of this compound dilution was transferred to a well in a 96-well plate.
# Test compound was serially diluted by transferring 30 μl to 60 μl of 100% DMSO in the next well and so forth for a total of 10 concentrations. 100 μl of 100% DMSO was added to two empty wells for no compound control and no enzyme control in the same 96-well plate.
# A new 96-well plate was marked as intermediate plate. 5 μl of compound serial dilution was transferred from source plate to the corresponding wells of the intermediate plate. 45 μl of 1× kinase base buffer (KB buffer) was added to each well of the intermediate plate. The intermediate plate was placed for 10 min on a shaker.
# 5 μl of each well was transferred from the 96-well intermediate plate to a 384-well plate in duplicates. […] A2 of the 96-well plate is transferred to A3 and A4 of the 384-well plate, and so on.
# IRAK4 and DTT in 1× kinase base buffer was added.
# Assay plate already contained 5 μl of compound in 10% DMSO. Added 10 μl of 2.5× enzyme solution to each well of the 384-well assay plate, except no enzyme control wells. […] Added 10 μl of 1× kinase base buffer to no enzyme control wells in the assay plate. Incubated at room temperature for 10 min.
# Added 10 μl of 2.5× peptide solution to each well of the 384-well assay plate. […] Incubated at 28° C. for 40 minutes. Added 25 μl of stop buffer to stop reaction. Collected data on Caliper.
# Copied conversion % data from Caliper program. Converted conversion % values to percent inhibition values. Percent inhibition=(max−conversion %)/(max−min)*100, where “max” means the conversion % of DMSO control and “min” means the conversion % of no enzyme control.
# The compound numbers correspond to the compound numbers in Table 1. […] “NA” stands for “not assayed.”
row,SMILES,IC50 [µM]
1,"NC(=O)C(O)C[C@H]1CCc2sc3ncnc(N[C@H]4CC[C@H](N5CCOCC5)CC4)c3c21 (mixture of isomers) [Compound I-118, 2-hydroxy-3-((R)-4-(((1r,4R)-4-morpholinocyclohexyl)amino)-6,7-dihydro-5H-cyclopenta[4,5]thieno[2,3-d]pyrimidin-5-yl)propanamide]",< 5
2,"CC[S@+]([O-])C[C@H]1CCc2sc3ncnc(O[C@H]4CC[C@H](N(C)C)CC4)c3c21 (single isomer, unassigned) [Compound I-45]",< 5
3,"CC[S@@+]([O-])C[C@H]1CCc2sc3ncnc(O[C@H]4CC[C@H](N(C)C)CC4)c3c21 (single isomer, unassigned) [Compound I-46]",< 5
4,"CN(C)[C@H]1CC[C@H](Oc2ncnc3sc4c(c23)CC(CC(N)=O)CC4)CC1 (single isomer, unassigned) [Compound I-112]",< 5
5,"CCNC(=O)CC1CCc2sc3ncnc(O[C@H]4CC[C@H](N(C)C)CC4)c3c21 (stereo in doubt) [Compound I-35, 2-[(3S)-12-[[4-(dimethylamino)cyclohexyl]oxy]-7-thia-9,11-diazatricyclo[6.4.0.0[2,6]]dodeca-1(12),2(6),8,10-tetraen-3-yl]-N-ethylacetamide]",< 5
6,"CN(C)[C@H]1CC[C@H](Oc2ncnc3sc4c(c23)[C@@H](CC(O)c2ncco2)CC4)CC1 (stereo in doubt) [Compound I-62, (1S)-2-[(3R)-12-[[4-(dimethylamino)cyclohexyl]oxy]-7-thia-9,11-diazatricyclo[6.4.0.0[2,6]]dodeca-1(8),2(6),9,11-tetraen-3-yl]-1-(1,3-oxazol-2-yl)ethan-1-ol]",< 5
7,CCOC(=O)C1CCc2sc3ncnc(N[C@H]4CC[C@H](N(C)C)CC4)c3c21 (some centres unmarked) [Compound I-1],5 to 20
8,"CCOC(=O)C1CCc2sc3ncnc(N[C@H]4CC[C@H](N)CC4)c3c21 (some centres unmarked) [Compound I-2, ethyl 4-(((1r,4r)-4-aminocyclohexyl)amino)-6,7-dihydro-5H-cyclopenta[4,5]thieno[2,3-d]pyrimidine-5-carboxylate]",20 to 50
9,CN(C)[C@H]1CC[C@H](Nc2ncnc3sc4c(c23)C(CO)CC4)CC1 (some centres unmarked) [Compound I-3],< 5
10,"CN(C)[C@H]1CC[C@H](Nc2ncnc3sc4c(c23)C(C(=O)O)CC4)CC1 (some centres unmarked) [Compound I-5, 4-(((1s,4s)-4-(dimethylamino)cyclohexyl)amino)-6,7-dihydro-5H-cyclopenta[4,5]thieno[2,3-d]pyrimidine-5-carboxylic acid]",5 to 20
11,"CN(C)[C@H]1CC[C@H](Oc2ncnc3sc4c(c23)C(C)(C)CC4)CC1 [Compound I-7, (1r,4r)-4-((5,5-dimethyl-6,7-dihydro-5H-cyclopenta[4,5]thieno[2,3-d]pyrimidin-4-yl)oxy)-N,N-dimethylcyclohexanamine]",< 5
12,"CN(C)[C@H]1CC[C@H](Oc2ncnc3sc4c(c23)C(C(=O)O)CC4)CC1 (some centres unmarked) [Compound I-8, 4-(((1r,4r)-4-(dimethylamino)cyclohexyl)oxy)-6,7-dihydro-5H-cyclopenta[4,5]thieno[2,3-d]pyrimidine-5-carboxylic acid]",> 50
13,COC(=O)CC1CCc2sc3ncnc(N[C@H]4CC[C@H](N(C)C)CC4)c3c21 (some centres unmarked) [Compound I-11],5 to 20
14,"CN(C)[C@H]1CC[C@H](Nc2ncnc3sc4c(c23)C(CC(N)=O)CC4)CC1 (some centres unmarked) [Compound I-13, 2-(4-(((1r,4r)-4-(dimethylamino)cyclohexyl)amino)-6,7-dihydro-5H-cyclopenta[4,5]thieno[2,3-d]pyrimidin-5-yl)acetamide]",< 5
15,"CN(C)[C@H]1CC[C@H](Nc2ncnc3sc4c(c23)C(CC(=O)N2CCCC2)CC4)CC1 (some centres unmarked) [Compound I-14, 2-(4-(((1r,4r)-4-(dimethylamino)cyclohexyl)amino)-6,7-dihydro-5H-cyclopenta[4,5]thieno[2,3-d]pyrimidin-5-yl)-1-(pyrrolidin-1-yl)ethanone]",> 50
16,"CN(C)[C@H]1CC[C@H](Nc2ncnc3sc4c(c23)C(C(=O)NCCO)CC4)CC1 (some centres unmarked) [Compound I-17, 12-[[4-(dimethylamino)cyclohexyl]amino]-N-(2-hydroxyethyl)-7-thia-9,11-diazatricyclo[6.4.0.0̂[2,6]]dodeca-1(12),2(6),8,10-tetraene-3-carboxamide]",< 5

# More lines, now with the values ahead:
row,IC50 [µM],SMILES
1,< 5,"CN(C)[C@H]1CC[C@H](Oc2ncnc3sc4c(c23)[C@@H](CC(O)c2ncco2)CC4)CC1 (mixture of isomers) [Compound I-60, 2-[(3R)-12-[[4-(dimethylamino)cyclohexyl]oxy]-7-thia-9,11-diazatricyclo[6.4.0.0[2,6]]dodeca-1(8),2(6),9,11-tetraen-3-yl]-1-(1,3-oxazol-2-yl)ethan-1-ol]"
2,< 5,"CN(C)[C@H]1CC[C@H](Oc2nc(Nc3ccc(N4CCNCC4)cc3)nc3sc4c(c23)C(CC(N)=O)CC4)CC1 (mixture of isomers) [Compound I-205, 2-(12-[[4-(dimethylamino)cyclohexyl]oxy]-10-[[4-(piperazin-1-yl)phenyl]amino]-7-thia-9, 11-diazatricyclo[6.4.0.0[2,6]]dodeca-1(12),2(6),8, 10-tetraen-3-yl)acetamide]"
3,5 to 20,"CN[C@H]1CC[C@H](Oc2ncnc3sc4c(c23)[C@@H](CC(=O)NC[C@@H](C)O)CC4)CC1 (stereo in doubt) [Compound I-151, N-[(2R)-2-hydroxypropyl]-2-[(3R)-12-[[4-(methylamino)cyclohexyl]oxy]-7-thia-9,11-diazatricyclo[6.4.0.0[2,6]]dodeca-1(12),2(6),8,10-tetraen-3-yl]acetamide]"
4,20 to 50,CCOC(=O)C1CCc2sc3ncnc(O[C@H]4CC[C@H](N(C)C)CC4)c3c21 (some centres unmarked) [Compound I-4]
5,5 to 20,"CN(C)[C@H]1CC[C@H](Nc2ncnc3sc4c(c23)C(C)(C)CC4)CC1 [Compound I-6, (1r,4r)-N1-(5,5-dimethyl-6,7-dihydro-5H-cyclopenta[4,5]thieno[2,3-d]pyrimidin-4-yl)-N4,N4-dimethylcyclohexane-1,4-diamine]"
6,< 5,CN(C)[C@H]1CC[C@H](Nc2ncnc3sc4c(c23)C(CC#N)CC4)CC1 (some centres unmarked) [Compound I-9]
7,20 to 50,"CN(C)[C@H]1CC[C@H](Nc2ncnc3sc4c(c23)C(CN2CCCC2)CC4)CC1 (some centres unmarked) [Compound I-10, (1r,4r)-N1,N1-dimethyl-N4-(5-(pyrrolidin-1-ylmethyl)-6,7-dihydro-5H-cyclopenta[4,5]thieno[2,3-d]pyrimidin-4-yl)cyclohexane-1,4-diamine]"
8,< 5,"CN(C)[C@H]1CC[C@H](Nc2ncnc3sc4c(c23)C(CCO)CC4)CC1 (some centres unmarked) [Compound I-12, 2-(4-(((1r,4r)-4-(dimethylamino)cyclohexyl)amino)-6,7-dihydro-5H-cyclopenta[4,5]thieno[2,3-d]pyrimidin-5-yl)ethanol]"
9,> 50,"CN(C)[C@H]1CC[C@H](Nc2ncnc3sc4c(c23)C(CC(=O)N2CC[C@H](O)C2)CC4)CC1 (stereo partly drawn) [Compound I-15, 2-(4-(((1r,4S)-4-(dimethylamino)cyclohexyl)amino)-6,7-dihydro-5H-cyclopenta[4,5]thieno[2,3-d]pyrimidin-5-yl)-1-((S)-3-hydroxypyrrolidin-1-yl)ethanone]"
10,> 50,"CN(C)[C@H]1CC[C@H](Nc2ncnc3sc4c(c23)C(CC(=O)N2CC[C@@H](O)C2)CC4)CC1 (stereo partly drawn) [Compound I-16, 2-(4-(((1r,4R)-4-(dimethylamino)cyclohexyl)amino)-6,7-dihydro-5H-cyclopenta[4,5]thieno[2,3-d]pyrimidin-5-yl)-1-((R)-3-hydroxypyrrolidin-1-yl)ethanone]"
